The nature of this data set: Stability of peptides in human serum. In kind it is in vitro ADME.

Where a SMILES comes first, the peptide text is derived from it. The star is where a group is joined. X1 = O=C(CCCCCCCCCCS)NCCCOCCOCCOCCCN*

One may read the half-life as the time needed for the level to fall by half in the phase considered. A high value points to slow decline. With `CC(=O)N[C@@H](CC(=O)O)C(=O)N[C@@H](CC(C)C)C(=O)N[C@@H](Cc1c[nH]c2ccccc12)C(=O)N[C@@H](CCCCN)C(=O)N[C@@H](CC(C)C)C(=O)NCCCOCCOCCOCCCNC(=O)CCCCCCCCCCS` [Compound 1] (Ac-DLWKL-X1; C-terminus assumed), the half-life was 17.5 min.

These data come from article PMC3753068 (Small (Weinheim an der Bergstrasse, Germany), 2012).
